Reference: ChEMBL document CHEMBL4138123, “Design, synthesis and biological evaluation of novel pyrazolochalcones as potential modulators of PI3K/Akt/mTOR pathway and inducers of apoptosis in breast cancer cells” (Eur J Med Chem, 2017)

Assays:
Type in all cases: functional
OVCAR-4 [1] = test: Cytotoxicity against human OVCAR4 cells assessed as cell growth at 0.1 uM after 48 hrs by sulforhodamine B assay relative to control; conditions: OVCAR-4, 48 h, read-out: Activity
COLO 205 = test: Cytotoxicity against human COLO205 cells assessed as cell growth at 0.1 uM after 48 hrs by sulforhodamine B assay relative to control; conditions: COLO 205, 48 h, read-out: Activity
UACC-62 [2] = test: Cytotoxicity against human UACC62 cells assessed as cell growth at 1 uM after 48 hrs by sulforhodamine B assay relative to control; conditions: UACC-62, 48 h, read-out: Activity
TK-10 = test: Cytotoxicity against human TK10 cells assessed as cell growth at 1 uM after 48 hrs by sulforhodamine B assay relative to control; conditions: TK-10, 48 h, read-out: Activity
OVCAR-3 [3] = test: Cytotoxicity against human OVCAR3 cells assessed as growth inhibition after 48 hrs by sulforhodamine B assay; conditions: OVCAR-3, 48 h
SN12C = test: Cytotoxicity against human SN12C cells assessed as cell growth at 10 uM after 48 hrs by sulforhodamine B assay relative to control; conditions: read-out: Activity
IGROV-1 [4] = test: Cytotoxicity against human IGROV1 cells assessed as cell growth at 0.1 uM after 48 hrs by sulforhodamine B assay relative to control; conditions: IGROV-1, 48 h, read-out: Activity
HCC 2998 = test: Cytotoxicity against human HCC2998 cells assessed as cell growth at 100 uM after 48 hrs by sulforhodamine B assay relative to control; conditions: HCC 2998, 48 h, read-out: Activity
K562 = test: Cytotoxicity against human K562 cells assessed as growth inhibition after 48 hrs by sulforhodamine B assay; conditions: K562, 48 h
Hs-578T [5] = test: Cytotoxicity against human Hs 578T cells assessed as cell growth at 0.01 uM after 48 hrs by sulforhodamine B assay relative to control; conditions: read-out: Activity
M14 = test: Cytotoxicity against human M14 cells assessed as cell growth at 10 uM after 48 hrs by sulforhodamine B assay relative to control; conditions: M14, 48 h, read-out: Activity
RXF 393 = test: Cytotoxicity against human RXF393 cells assessed as cell growth at 100 uM after 48 hrs by sulforhodamine B assay relative to control; conditions: RXF 393, 48 h, read-out: Activity
CCRF-CEM = test: Cytotoxicity against human CCRF-CEM cells assessed as growth inhibition after 48 hrs by sulforhodamine B assay
SK-OV-3 [6] = test: Cytotoxicity against human SKOV3 cells assessed as cell growth at 0.01 uM after 48 hrs by sulforhodamine B assay relative to control; conditions: SK-OV-3, 48 h, read-out: Activity
SW-620 = test: Cytotoxicity against human SW620 cells assessed as cell growth at 10 uM after 48 hrs by sulforhodamine B assay relative to control; conditions: SW-620, 48 h, read-out: Activity
T47D = test: Cytotoxicity against human T47D cells assessed as cell growth at 100 uM after 48 hrs by sulforhodamine B assay relative to control; conditions: read-out: Activity
OVCAR-4 [7] = test: Cytotoxicity against human OVCAR4 cells assessed as growth inhibition after 48 hrs by sulforhodamine B assay; conditions: OVCAR-4, 48 h
OVCAR-4 [8] = test: Cytotoxicity against human OVCAR4 cells assessed as cell growth at 1 uM after 48 hrs by sulforhodamine B assay relative to control; conditions: OVCAR-4, 48 h, read-out: Activity
MDA-MB-435 [9] = test: Cytotoxicity against human MDA-MB-435 cells assessed as cell growth at 0.1 uM after 48 hrs by sulforhodamine B assay relative to control; conditions: MDA-MB-435, 48 h, read-out: Activity
MDA-MB-231 = test: Cytotoxicity against human MDA-MB-231 cells assessed as cell growth at 0.1 uM after 48 hrs by sulforhodamine B assay relative to control; conditions: MDA-MB-231, 48 h, read-out: Activity
Hs-578T [10] = test: Cytotoxicity against human Hs 578T cells assessed as growth inhibition after 48 hrs by sulforhodamine B assay
IGROV-1 [11] = test: Cytotoxicity against human IGROV1 cells assessed as growth inhibition after 48 hrs by sulforhodamine B assay; conditions: IGROV-1, 48 h
HT-29 = test: Cytotoxicity against human HT-29 cells assessed as cell growth at 10 uM after 48 hrs by sulforhodamine B assay relative to control; conditions: HT-29, 48 h, read-out: Activity
OVCAR-3 [12] = test: Cytotoxicity against human OVCAR3 cells assessed as cell growth at 100 uM after 48 hrs by sulforhodamine B assay relative to control; conditions: OVCAR-3, 48 h, read-out: Activity
BT-549 = test: Cytotoxicity against human BT549 cells assessed as cell growth at 100 uM after 48 hrs by sulforhodamine B assay relative to control; conditions: BT-549, 48 h, read-out: Activity
UACC-62 [13] = test: Cytotoxicity against human UACC62 cells assessed as cell growth at 10 uM after 48 hrs by sulforhodamine B assay relative to control; conditions: UACC-62, 48 h, read-out: Activity
SK-OV-3 [14] = test: Cytotoxicity against human SKOV3 cells assessed as cell growth at 100 uM after 48 hrs by sulforhodamine B assay relative to control; conditions: SK-OV-3, 48 h, read-out: Activity
UO-31 = test: Cytotoxicity against human UO31 cells assessed as cell growth at 1 uM after 48 hrs by sulforhodamine B assay relative to control; conditions: UO-31, 48 h, read-out: Activity
OVCAR-8 [15] = test: Cytotoxicity against human OVCAR8 cells assessed as cell growth at 0.01 uM after 48 hrs by sulforhodamine B assay relative to control; conditions: OVCAR-8, 48 h, read-out: Activity
NCI-H460 = test: Cytotoxicity against human NCI-H460 cells assessed as cell growth at 10 uM after 48 hrs by sulforhodamine B assay relative to control; conditions: NCI-H460, 48 h, read-out: Activity
SR = test: Cytotoxicity against human SR cells assessed as cell growth at 0.01 uM after 48 hrs by sulforhodamine B assay relative to control; conditions: read-out: Activity
OVCAR-8 [16] = test: Cytotoxicity against human OVCAR8 cells assessed as cell growth at 10 uM after 48 hrs by sulforhodamine B assay relative to control; conditions: OVCAR-8, 48 h, read-out: Activity
MDA-MB-435 [17] = test: Cytotoxicity against human MDA-MB-435 cells assessed as cell growth at 10 uM after 48 hrs by sulforhodamine B assay relative to control; conditions: MDA-MB-435, 48 h, read-out: Activity
NCI/ADR-RES = test: Cytotoxicity against human NCI/ADR-RES cells assessed as cell growth at 10 uM after 48 hrs by sulforhodamine B assay relative to control; conditions: read-out: Activity
SNB-19 = test: Cytotoxicity against human SNB19 cells assessed as cell growth at 0.1 uM after 48 hrs by sulforhodamine B assay relative to control; conditions: SNB-19, 48 h, read-out: Activity
NCI-H23 = test: Cytotoxicity against human NCI-H23 cells assessed as cell growth at 10 uM after 48 hrs by sulforhodamine B assay relative to control; conditions: NCI-H23, 48 h, read-out: Activity

COc1cc(C(=O)/C=C/c2cc(-c3cc(OC)c(OC)c(OC)c3)n[nH]2)cc(OC)c1OC
growth at 0.1 µM (OVCAR-4 [1]): 95% | growth at 0.1 µM (COLO 205): 102% | growth at 1 µM (UACC-62 [2]): 90% | growth at 1 µM (TK-10): 80% | LC50 (OVCAR-3 [3]): 5.79 µM | TGI (OVCAR-3 [3]): 3.18 µM | growth at 10 µM (SN12C): -86% | growth at 0.1 µM (IGROV-1 [4]): 103% | growth at 100 µM (HCC 2998): -89% | LC50 (concentration killing 50% of cells) (K562): > 100 µM | TGI (K562): > 100 µM | growth at 0.01 µM (Hs-578T [5]): 93% | growth at 10 µM (M14): -90% | growth at 100 µM (RXF 393): -98% | LC50 (concentration killing 50% of cells) (CCRF-CEM): > 100 µM | growth at 0.01 µM (SK-OV-3 [6]): 100% | growth at 10 µM (SW-620): -89% | growth at 100 µM (T47D): -92% | LC50 (OVCAR-4 [7]): 5.25 µM | TGI (OVCAR-4 [7]): 2.76 µM | growth at 1 µM (OVCAR-4 [8]): 79% | growth at 0.1 µM (MDA-MB-435 [9]): 94% | growth at 0.1 µM (MDA-MB-231): 104% | LC50 (Hs-578T [10]): > 100 µM | TGI (Hs-578T [10]): 53.9 µM | LC50 (IGROV-1 [11]): 33.1 µM | TGI (IGROV-1 [11]): 10.2 µM | growth at 10 µM (HT-29): -86% | growth at 100 µM (OVCAR-3 [12]): -98% | growth at 100 µM (BT-549): -94% | growth at 10 µM (UACC-62 [13]): -69% | growth at 100 µM (SK-OV-3 [14]): -100% | growth at 1 µM (UO-31): 62% | growth at 0.01 µM (OVCAR-8 [15]): 100% | growth at 10 µM (NCI-H460): -51% | growth at 0.01 µM (SR): 111% | growth at 10 µM (OVCAR-8 [16]): -76% | growth at 10 µM (MDA-MB-435 [17]): -90% | growth at 10 µM (NCI/ADR-RES): 12% | growth at 0.1 µM (SNB-19): 90%

COc1cc(-c2cc(/C=C/C(=O)c3ccc4c(c3)OCO4)[nH]n2)cc(OC)c1OC
growth at 0.1 µM (OVCAR-4 [1]): 92% | growth at 0.1 µM (COLO 205): 101% | growth at 1 µM (UACC-62 [2]): 99% | growth at 1 µM (TK-10): 97% | LC50 (OVCAR-3 [3]): > 100 µM | TGI (OVCAR-3 [3]): 12.3 µM | growth at 10 µM (SN12C): 22% | growth at 0.1 µM (IGROV-1 [4]): 97% | growth at 100 µM (HCC 2998): -50% | LC50 (concentration killing 50% of cells) (K562): > 100 µM | TGI (K562): 9.81 µM | growth at 0.01 µM (Hs-578T [5]): 93% | growth at 10 µM (M14): 15% | growth at 100 µM (RXF 393): -89% | LC50 (concentration killing 50% of cells) (CCRF-CEM): > 100 µM | TGI (CCRF-CEM): 5.95 µM | growth at 0.01 µM (SK-OV-3 [6]): 103% | growth at 10 µM (SW-620): -9% | growth at 10 µM (NCI-H23): 63% | growth at 100 µM (T47D): -19% | LC50 (OVCAR-4 [7]): > 100 µM | TGI (OVCAR-4 [7]): > 100 µM | growth at 1 µM (OVCAR-4 [8]): 82% | growth at 0.1 µM (MDA-MB-435 [9]): 94% | growth at 0.1 µM (MDA-MB-231): 103% | LC50 (Hs-578T [10]): > 100 µM | TGI (Hs-578T [10]): 78.7 µM | LC50 (IGROV-1 [11]): > 100 µM | TGI (IGROV-1 [11]): 62.1 µM | growth at 10 µM (HT-29): -54% | growth at 100 µM (OVCAR-3 [12]): -38% | growth at 10 µM (UACC-62 [13]): 26% | growth at 100 µM (SK-OV-3 [14]): -47% | growth at 1 µM (UO-31): 81% | growth at 0.01 µM (OVCAR-8 [15]): 99% | growth at 10 µM (NCI-H460): -38% | growth at 0.01 µM (SR): 106% | growth at 10 µM (OVCAR-8 [16]): 2% | growth at 10 µM (MDA-MB-435 [17]): -15% | growth at 10 µM (NCI/ADR-RES): 23% | growth at 0.1 µM (SNB-19): 88%

COc1ccc(-c2cc(/C=C/C(=O)c3ccc4c(c3)OCO4)[nH]n2)cc1OC
GI50 (OVCAR-3 [3]): 1.96 µM | GI50 (K562): 0.61 µM | GI50 (CCRF-CEM): 0.36 µM | GI50 (OVCAR-4 [7]): 1.92 µM | GI50 (Hs-578T [10]): 3.76 µM | GI50 (IGROV-1 [11]): 3.13 µM
